Results: US20230295260A1, “GLP RECEPTOR AGONISTS” (HEPTARES THERAPEUTICS LIMITED, priority 2020, published 2023)
Non-standard residues stand in square brackets, D forms with d. Residues, ends and D or L forms follow the SMILES beside them. ξ: configuration not given here. *: point of attachment. Malonyl(2,2-Me2,histaminyl) = CC(C)(C(=O)NCCc1cnc[nH]1)C(=O)*; Ala(1H-tetrazol-5-yl) = N[C@@H](Cc1nnn[nH]1)C(=O)O; αMeL = CC(C)C[C@](C)(N)C(=O)O; ξαMeD = CC(N)(CC(=O)O)C(=O)O; Nle = CCCC[C@H](N)C(=O)O; Aib = CC(C)(N)C(=O)O; Alloc = C=CCOC(=O)*

Legend:
[1] = target: T1, mouse GLP1 receptor (Mus musculus, UniProt O35659); assay: cAMP accumulation assay (HTRF), functional agonism of mouse GLP1 receptor in HEK cells; assay type: cell-based; details: HEK cells transiently transfected, 45 min 37° C.; for Emax: HEK293, read-out: Mouse GLP-1 R agonist cAMP Emax; for EC50: read-out: Mouse GLP-1 R agonist cAMP pEC50 (converted)
T1 construct: expressed in transfected cells; host or cells: HEK cells, transient transfection with GeneJuice
T1 sequence (O35659 22-463): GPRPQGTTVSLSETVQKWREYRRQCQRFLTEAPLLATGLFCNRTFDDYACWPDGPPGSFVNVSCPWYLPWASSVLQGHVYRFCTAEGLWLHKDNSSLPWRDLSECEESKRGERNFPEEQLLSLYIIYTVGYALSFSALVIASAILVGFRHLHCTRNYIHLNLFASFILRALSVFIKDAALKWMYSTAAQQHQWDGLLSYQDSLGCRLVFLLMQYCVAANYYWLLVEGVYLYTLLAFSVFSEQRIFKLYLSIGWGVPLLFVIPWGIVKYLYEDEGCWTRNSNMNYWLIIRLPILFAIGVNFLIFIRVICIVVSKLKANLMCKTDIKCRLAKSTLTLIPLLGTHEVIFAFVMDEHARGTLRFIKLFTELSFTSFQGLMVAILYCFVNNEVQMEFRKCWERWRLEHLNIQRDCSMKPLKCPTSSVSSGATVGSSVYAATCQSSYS

[2] = target: T2, human GLP2 receptor (Homo sapiens, UniProt O95838); assay: cAMP accumulation assay (HTRF), functional agonism of human GLP2 receptor in HEK cells; details: for Emax: HEK293, read-out: Human GLP-2R agonist cAMP Emax;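 as to all read-outs here: HEK cells transduced via BacMam to express human GLP2 receptor, agonist-stimulated cAMP measured by HTRF after 45 min at 37 °C in HBSS with 0.5 mM IBMX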
T2 sequence (O95838 1-553): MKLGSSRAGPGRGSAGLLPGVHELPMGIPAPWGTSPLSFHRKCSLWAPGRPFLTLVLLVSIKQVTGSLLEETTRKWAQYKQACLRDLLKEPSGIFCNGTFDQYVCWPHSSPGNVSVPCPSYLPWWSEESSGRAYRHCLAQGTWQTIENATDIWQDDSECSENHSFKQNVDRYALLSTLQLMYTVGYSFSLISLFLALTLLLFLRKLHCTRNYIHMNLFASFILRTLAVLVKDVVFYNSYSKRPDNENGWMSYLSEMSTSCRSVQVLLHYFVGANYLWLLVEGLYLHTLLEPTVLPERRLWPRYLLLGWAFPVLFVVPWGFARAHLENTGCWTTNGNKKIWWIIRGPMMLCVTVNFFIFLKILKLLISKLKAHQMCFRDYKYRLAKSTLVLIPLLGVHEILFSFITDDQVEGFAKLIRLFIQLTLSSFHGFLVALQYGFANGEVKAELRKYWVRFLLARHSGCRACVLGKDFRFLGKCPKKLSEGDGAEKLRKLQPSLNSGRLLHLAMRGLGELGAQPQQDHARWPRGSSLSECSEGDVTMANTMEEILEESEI
Protocol: The functional activity of the peptides were assessed using a HTRF cAMP assay. pEC50 values are quoted.
cAMP production upon agonist stimulation of human GLP2 or GLP1 receptor was assessed utilizing HiRange cAMP kit (Cisbio). In brief, HEK cells were infected with either human GLP2 or GLP1 receptor BacMam virus for 24 hours and frozen for later use in the assay. […] Cells were prepared in the assay buffer (HBSS (Lonza) supplemented with 0.5 mM IBMX (Tocris)). After 45 min incubation at 37° C., the reaction was stopped by addition of the HTRF detection reagents in the lysis buffer provided in the kit.

[3] = target: T3, human GLP1 receptor (Homo sapiens, UniProt P43220); assay: cAMP accumulation assay (HTRF), functional agonism of human GLP1 receptor in HEK cells; assay type: cell-based; details: HEK cells, human GLP1 receptor BacMam, 45 min 37° C.; for Emax: HEK293, read-out: Human GLP-1R agonist cAMP Emax; for EC50: read-out: Human GLP-1R agonist cAMP pEC50 (converted)
T3 construct: expressed in transfected cells; host or cells: HEK cells, BacMam virus transduction
T3 sequence (P43220 24-463): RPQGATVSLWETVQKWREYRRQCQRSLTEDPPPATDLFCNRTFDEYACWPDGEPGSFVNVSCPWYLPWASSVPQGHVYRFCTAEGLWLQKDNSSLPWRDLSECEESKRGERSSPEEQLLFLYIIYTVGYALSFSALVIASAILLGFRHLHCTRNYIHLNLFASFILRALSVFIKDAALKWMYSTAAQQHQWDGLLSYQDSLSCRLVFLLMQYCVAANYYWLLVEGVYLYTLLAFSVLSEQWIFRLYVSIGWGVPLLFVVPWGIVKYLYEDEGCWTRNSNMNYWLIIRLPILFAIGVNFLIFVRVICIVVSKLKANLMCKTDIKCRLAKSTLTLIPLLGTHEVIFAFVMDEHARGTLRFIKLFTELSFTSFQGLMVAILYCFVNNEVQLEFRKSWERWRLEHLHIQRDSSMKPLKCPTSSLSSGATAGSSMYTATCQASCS

[4] = target: T4, mouse GLP2 receptor (Mus musculus, UniProt Q5IXF8); assay: cAMP accumulation assay (HTRF), functional agonism of mouse GLP2 receptor in HEK cells; assay type: cell-based; details: HEK cells transiently transfected, 45 min 37° C.; for Emax: HEK293, read-out: Mouse GLP-2R agonist cAMP Emax; for EC50: read-out: Mouse GLP-2R agonist cAMP pEC50 (converted)
T4 construct: expressed in transfected cells; host or cells: HEK cells, transient transfection with GeneJuice
T4 sequence (Q5IXF8 1-512): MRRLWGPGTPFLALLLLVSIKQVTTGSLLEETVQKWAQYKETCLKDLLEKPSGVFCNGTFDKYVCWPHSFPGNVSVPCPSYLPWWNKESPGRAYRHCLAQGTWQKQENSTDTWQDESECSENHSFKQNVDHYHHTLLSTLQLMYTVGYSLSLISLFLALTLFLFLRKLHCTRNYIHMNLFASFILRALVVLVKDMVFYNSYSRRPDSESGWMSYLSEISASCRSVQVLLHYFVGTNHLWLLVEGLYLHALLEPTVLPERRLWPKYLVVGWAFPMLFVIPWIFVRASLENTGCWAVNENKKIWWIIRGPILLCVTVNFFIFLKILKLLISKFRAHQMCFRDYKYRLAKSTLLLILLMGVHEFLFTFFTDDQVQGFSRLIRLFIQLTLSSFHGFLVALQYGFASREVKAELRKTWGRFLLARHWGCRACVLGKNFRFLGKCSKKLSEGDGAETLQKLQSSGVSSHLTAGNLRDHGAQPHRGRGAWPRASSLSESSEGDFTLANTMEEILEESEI

Structure (SMILES) | Emax [1] | Emax [2] | Emax [3] | Emax [4] | EC50 [1] | EC50 [2] | EC50 [3] | EC50 [4]
C=CCOC(=O)NCCCC[C@H](NC(=O)[C@H](CC(C)C)NC(=O)[C@H](CC(=O)O)NC(=O)[C@H](CC(C)C)NC(=O)[C@@H](NC(=O)[C@@H](NC(=O)[C@@H](Cc1ccccc1)NC(=O)[C@H](CCCC)NC(=O)[C@H](CCC(=O)O)NC(=O)[C@H](CC(=O)O)NC(=O)[C@H](CO)NC(=O)[C@H](Cc1ccccc1)NC(=O)[C@H](CO)NC(=O)[C@H](C)NC(=O)[C@H](Cc1nn[nH]n1)NC(=O)C(C)(C)C(=O)NCCc1c[nH]cn1)[C@@H](C)O)[C@@H](C)CC)C(=O)N[C@@H](C)C(=O)N[C@@H](C)C(=O)N[C@@H](CCCCN)C(=O)N[C@@H](CC(=O)O)C(=O)N[C@@H](Cc1ccccc1)C(=O)N[C@H](C(=O)N[C@@H](CC(N)=O)C(=O)N[C@@H](Cc1c[nH]c2ccccc12)C(=O)N[C@@H](CC(C)C)C(=O)N[C@H](C(=O)N[C@@H](CCC(N)=O)C(=O)N[C@H](C(=O)N[C@@H](CCCCN)C(=O)N[C@H](C(=O)N[C@H](C(=O)N[C@@H](CC(=O)O)C(N)=O)[C@@H](C)O)[C@@H](C)CC)[C@@H](C)O)[C@@H](C)CC)[C@@H](C)CC [Example 12] ({Malonyl(2,2-Me2,histaminyl)}-[Ala(1H-tetrazol-5-yl)]ASFSDE[Nle][dF]TILDLK(Alloc)AAKDFINWLIQTKITD-NH2) | 83.3% | 102% | 81.1% | 100% |  |  |  | 
C=CCOC(=O)NCCCC[C@H](NC(=O)[C@H](CC(C)C)NC(=O)[C@H](CC(=O)O)NC(=O)[C@H](CC(C)C)NC(=O)[C@@H](NC(=O)[C@@H](NC(=O)[C@@H](Cc1ccccc1)NC(=O)[C@H](CCCC)NC(=O)[C@H](CCC(=O)O)NC(=O)[C@H](CC(=O)O)NC(=O)[C@H](CO)NC(=O)[C@H](Cc1ccccc1)NC(=O)[C@H](CO)NC(=O)CNC(=O)[C@H](Cc1nn[nH]n1)NC(=O)C(C)(C)C(=O)NCCc1c[nH]cn1)[C@@H](C)O)[C@@H](C)CC)C(=O)N[C@@H](C)C(=O)N[C@@H](C)C(=O)N[C@@H](CCCCN)C(=O)N[C@@H](CC(=O)O)C(=O)N[C@@H](Cc1ccccc1)C(=O)N[C@H](C(=O)N[C@@H](CC(N)=O)C(=O)N[C@@H](Cc1c[nH]c2ccccc12)C(=O)N[C@@H](CC(C)C)C(=O)N[C@H](C(=O)N[C@@H](CCC(N)=O)C(=O)N[C@H](C(=O)N[C@@H](CCCCN)C(=O)N[C@@](C)(CC(C)C)C(=O)N[C@H](C(=O)N[C@@H](CC(=O)O)C(N)=O)[C@@H](C)O)[C@@H](C)O)[C@@H](C)CC)[C@@H](C)CC [Example 13] ({Malonyl(2,2-Me2,histaminyl)}-[Ala(1H-tetrazol-5-yl)]GSFSDE[Nle][dF]TILDLK(Alloc)AAKDFINWLIQTK[αMeL]TD-NH2) | 92.3% | 100% | 93.4% | 101% | 3.16 nM | 0.00794 nM | 2.51 nM | 3.98 nM
C=CCOC(=O)NCCCC[C@H](NC(=O)[C@H](C)NC(=O)[C@H](C)NC(=O)[C@H](CCCCNC(=O)OCC=C)NC(=O)[C@H](CC(C)C)NC(=O)[C@H](CC(=O)O)NC(=O)[C@H](CC(C)C)NC(=O)C(C)(C)NC(=O)[C@@H](NC(=O)[C@@H](Cc1ccccc1)NC(=O)[C@H](CCCC)NC(=O)[C@H](CCC(=O)O)NC(=O)[C@H](CC(=O)O)NC(=O)[C@H](CO)NC(=O)[C@H](Cc1ccccc1)NC(=O)[C@H](CO)NC(=O)CNC(=O)[C@H](Cc1nn[nH]n1)NC(=O)C(C)(C)C(=O)NCCc1c[nH]cn1)[C@@H](C)O)C(=O)N[C@@H](CC(=O)O)C(=O)N[C@@H](Cc1ccccc1)C(=O)N[C@H](C(=O)N[C@@H](CC(N)=O)C(=O)N[C@@H](Cc1c[nH]c2ccccc12)C(=O)N[C@@H](CC(C)C)C(=O)N[C@H](C(=O)N[C@@H](CCC(N)=O)C(=O)N[C@H](C(=O)N[C@@H](CCCCN)C(=O)N[C@H](C(=O)N[C@H](C(=O)N[C@@H](CC(=O)O)C(N)=O)[C@@H](C)O)[C@@H](C)CC)[C@@H](C)O)[C@@H](C)CC)[C@@H](C)CC [Example 15] ({Malonyl(2,2-Me2,histaminyl)}-[Ala(1H-tetrazol-5-yl)]GSFSDE[Nle][dF]T[Aib]LDLK(Alloc)AAK(Alloc)DFINWLIQTKITD-NH2) | 94.4% | 101% | 95.1% | 99.9% | 1.58 nM | 0.00794 nM | 5.01 nM | 1.58 nM
C=CCOC(=O)NCCCC[C@H](NC(=O)[C@H](CC(C)C)NC(=O)[C@H](CC(=O)O)NC(=O)[C@H](CC(C)C)NC(=O)C(C)(C)NC(=O)[C@@H](NC(=O)[C@@H](Cc1ccccc1)NC(=O)[C@H](CCCC)NC(=O)[C@H](CCC(=O)O)NC(=O)[C@H](CC(=O)O)NC(=O)[C@H](CO)NC(=O)[C@H](Cc1ccccc1)NC(=O)[C@H](CO)NC(=O)CNC(=O)[C@H](Cc1nn[nH]n1)NC(=O)C(C)(C)C(=O)NCCc1c[nH]cn1)[C@@H](C)O)C(=O)N[C@@H](C)C(=O)N[C@@H](C)C(=O)N[C@@H](CCCCN)C(=O)N[C@@H](CC(=O)O)C(=O)N[C@@H](Cc1ccccc1)C(=O)N[C@H](C(=O)N[C@@H](CC(N)=O)C(=O)N[C@@H](Cc1c[nH]c2ccccc12)C(=O)N[C@@H](CC(C)C)C(=O)N[C@H](C(=O)N[C@@H](CCC(N)=O)C(=O)N[C@H](C(=O)N[C@@H](CCCCN)C(=O)N[C@H](C(=O)N[C@H](C(=O)N[C@@H](CC(=O)O)C(N)=O)[C@@H](C)O)[C@@H](C)CC)[C@@H](C)O)[C@@H](C)CC)[C@@H](C)CC [Example 17] ({Malonyl(2,2-Me2,histaminyl)}-[Ala(1H-tetrazol-5-yl)]GSFSDE[Nle][dF]T[Aib]LDLK(Alloc)AAKDFINWLIQTKITD-NH2) | 94.9% | 101% | 93.7% | 100% | 0.631 nM | 0.00501 nM | 0.794 nM | 0.794 nM
C=CCOC(=O)NCCCC[C@H](NC(=O)[C@H](CC(C)C)NC(=O)[C@H](CC(=O)O)NC(=O)[C@H](CC(C)C)NC(=O)[C@@H](NC(=O)[C@@H](NC(=O)[C@@H](Cc1ccccc1)NC(=O)[C@H](CCCC)NC(=O)[C@H](CCC(=O)O)NC(=O)[C@H](CC(=O)O)NC(=O)[C@H](CO)NC(=O)[C@H](Cc1ccccc1)NC(=O)[C@H](CO)NC(=O)CNC(=O)[C@H](Cc1nn[nH]n1)NC(=O)C(C)(C)C(=O)NCCc1c[nH]cn1)[C@@H](C)O)[C@@H](C)CC)C(=O)N[C@@H](C)C(=O)N[C@@H](C)C(=O)N[C@@H](CCCCN)C(=O)N[C@@H](CC(=O)O)C(=O)N[C@@H](Cc1ccccc1)C(=O)N[C@H](C(=O)N[C@@H](CC(N)=O)C(=O)N[C@@H](Cc1c[nH]c2ccccc12)C(=O)N[C@@H](CC(C)C)C(=O)N[C@H](C(=O)N[C@@H](CCC(N)=O)C(=O)N[C@H](C(=O)N[C@@H](CCCCN)C(=O)N[C@H](C(=O)N[C@H](C(=O)NC(C)(CC(=O)O)C(N)=O)[C@@H](C)O)[C@@H](C)CC)[C@@H](C)O)[C@@H](C)CC)[C@@H](C)CC (some centres unmarked) [Example 20] ({Malonyl(2,2-Me2,histaminyl)}-[Ala(1H-tetrazol-5-yl)]GSFSDE[Nle][dF]TILDLK(Alloc)AAKDFINWLIQTKIT[ξαMeD]-NH2; C-terminus assumed) | 92.2% | 103% | 94% | 100% |  |  |  | 
